Here are results for two compounds from patent US4438207A, “Radioimmunoassay for cannabinoids” (priority 1981, dated 1984).

One data set deals with antiserum. The experiment in a line: Binding of iodinated antigen to THC antiserum. Further details: species or system rabbit. Here is the method: A total of 50 μl of a solution of […] of (6aR-trans)-N-[2-(4-hydroxyphenyl)ethyl]-4-(6a,7,8,10a-Tetrahydro-6,6,9-trimethyl-3-pentyl-6H-dibenzo[b,d]pyran-1-oxy)butanamide in 1 ml of 100% alcohol was added to a vial containing 5 mCi of Na^125 I having a radioactive concentration of >100 mCi/ml. To this mixture was then added a total of 40 μl of chloramine T solution (5 mg/ml in 75% EtOH; 25% Borate buffer 0.1 M, pH 8.4). The reaction mixture was mixed for 180 seconds. After mixing, a total of 40 μl of a 1% solution of sodium meta bisulfite (75% EtOH, 25% Tris buffer 0.1 M, pH 7.0) was added to the reaction vial, and the vial contents were mixed for 30 seconds to stop the reaction.
The mixture was removed from the vial and placed on the surface of a Bio-Gel P-2 column (1.5×40 cm, 100-200 mesh) until completely absorbed on the column bed. Approximately 200 ml of 60% Tris -40% EtOH were added, and 100×1-2 ml fractions were collected. The eluate contained the above-captioned, labeled antigen.
After selection of the appropriate fractions (≥50% binding), the fractions were pooled and diluted 1:50 in 0.01 M phosphate buffered saline (PBS) containing 25% ethanol with 0.1% sodium azide and 0.002-0.007% butylated hydroxy toluene (BHT) as preservatives.
[…]. Multiple iodinations were performed on Δ^9 -tetrahydrocannabinol,and the radioisotopically-labeled reagent was used as the ^125 I-labeled antigen. The elution patterns varied considerably. In general, there were numerous small peaks in the elution patterns of most of the iodination products with the percent binding being lower than 50%. On occasion, there were two major peaks with insufficient binding (<50%) in either peak.
. Subsequent injections were made at four-week intervals with immunogen in Freund's incomplete adjuvant. Bleedings, obtained by venipuncture from immunized rabbits, were allowed to stand at 2°-8° C. temperature until the clot had formed. The serum was decanted and stored at from -20° to 5° C.

The test system of data set [1] is Tetrahydrocannabinol Antibody. The experiment in a line: ^125 I THC radioimmunoassay response curve, anion exchange resin separation. Type of data set: binding, rabbit. As to conditions: resin reagent.
The conditions of data set [2]: experiments with humans; cited from earlier work.
Data set [3] can be described thus: Urine THC levels as a function of time after smoking known dosages. As to conditions: THC 2.5 mg smoked.
The subject of data set [4] is Tetrahydrocannabinol Antibody. The experiment in a line: ^125 I THC radioimmunoassay response curve, dextran-coated charcoal separation. Type of data set: binding, rabbit.

“(6aR-trans)-N-[2-hydroxyphenyl)ethyl]-4-(6a,7,10,10a-Tetrahydro-6,6,9-trimethyl-3-pentyl-6H-dibenzo[b,d]pyran-1-oxy)butanamide [Δ^9 -Tetrahydrocannabinol Derivative]” came in with a binding properties retained in the data set on antiserum (antigen reagent, at least six weeks) of over 50%. The “binding of iodinated product, major peak” value in the data set on antiserum (upon iodination, major peak, fractions #10 to #15) is over 50%. The “binding of iodinated product, minor peak” value with antiserum (upon iodination, minor peak, fractions #30 to #35) is “no binding”.

Turning to `CCCCCc1cc(O)c2c(c1)OC(C)(C)[C@@H]1CCC(C)=C[C@@H]21` [THC, Δ-9-tetrahydrocannabinol], the DPM in data set [1] (12.5 ng/ml THC) was found to be 31096 DPM; in data set [1] (25 ng/ml THC), 29212 DPM; in data set [1] (50 ng/ml THC), 27945 DPM; in data set [1] (100 ng/ml THC) it was 26333 DPM; in data set [1] (200 ng/ml THC) it was 25651 DPM; in data set [4] (12.5 ng/ml THC) it was 13946 DPM. The DPM in data set [4] (25.0 ng/ml THC) was 11964 DPM; in data set [4] (50.0 ng/ml THC), 11389 DPM; in data set [4] (100.0 ng/ml THC), 11342 DPM; in data set [4] (200.0 ng/ml THC), 10474 DPM. Besides, in data set [2], the “excretion route of metabolites” value is listed as “mainly via feces”. Moreover, the extent of metabolism entry in data set [2] was “almost complete metabolism”. Further, the “Tetrahydrocannabinol Concentration in urine” value in data set [3] (subject 1 (smoked marijuana prior to study), sodium azide added, 0 h) was 10.0 ng THC E/ml; in data set [3] (subject 1 (smoked marijuana prior to study), sodium azide added, 0-4 h), 29.0 ng THC E/ml; in data set [3] (subject 1 (smoked marijuana prior to study), sodium azide added, 4-8 h), 70.0 ng THC E/ml; in data set [3] (subject 1 (smoked marijuana prior to study), sodium azide added, 12-24 h) it was 72.5 ng THC E/ml; in data set [3] (subject 1 (smoked marijuana prior to study), sodium azide added, 24-48 h), 41.5 ng THC E/ml; in data set [3] (subject 1 (smoked marijuana prior to study), sodium azide added, 48-72 h) it was 40.0 ng THC E/ml. For the same compound, the “Tetrahydrocannabinol Concentration in urine” value in data set [3] (subject 1 (smoked marijuana prior to study), 0 h) amounted to 28.0 ng THC E/ml; in data set [3] (subject 1 (smoked marijuana prior to study), 0-4 h), 45.0 ng THC E/ml; in data set [3] (subject 1 (smoked marijuana prior to study), 4-8 h) it was 37.5 ng THC E/ml; in data set [3] (subject 1 (smoked marijuana prior to study), 12-24 h), 45.0 ng THC E/ml; in data set [3] (subject 1 (smoked marijuana prior to study), 24-48 h) it was 20.0 ng THC E/ml; in data set [3] (subject 1 (smoked marijuana prior to study), 48-72 h) it was 27.5 ng THC E/ml. Moreover, the “Tetrahydrocannabinol Concentration in urine” value in data set [3] (subject 2, sodium azide added, 0 h) was 5.0 ng THC E/ml; in data set [3] (subject 2, sodium azide added, 0-4 h) it was 11.0 ng THC E/ml; in data set [3] (subject 2, sodium azide added, 4-8 h), 13.5 ng THC E/ml; in data set [3] (subject 2, sodium azide added, 8-12 h), 7.5 ng THC E/ml; in data set [3] (subject 2, sodium azide added, 12-24 h) it was 17.5 ng THC E/ml; in data set [3] (subject 2, sodium azide added, 24-48 h), 7.5 ng THC E/ml. Further, the “Tetrahydrocannabinol Concentration in urine” value came to 5.0 ng THC E/ml in data set [3] (subject 2, sodium azide added, 48-72 h); 5.0 ng THC E/ml in data set [3] (subject 2, 0 h); 4.0 ng THC E/ml in data set [3] (subject 2, 0-4 h); 26.0 ng THC E/ml in data set [3] (subject 2, 4-8 h); 10.0 ng THC E/ml in data set [3] (subject 2, 8-12 h); 7.5 ng THC E/ml in data set [3] (subject 2, 12-24 h). Moreover, the “Tetrahydrocannabinol Concentration in urine” value in data set [3] (subject 2, 24-48 h) was found to be 22.5 ng THC E/ml; in data set [3] (subject 2, 48-72 h), 12.5 ng THC E/ml.
